Test systems include KM12 colon; MALME-3M melanoma; NCI-H23 lung; OVCAR-5 ovarian; SK-MEL-2 melanoma; SK-MEL-28 melanoma; SNB-19 CNS; U251 CNS; UO-31 renal.
Common to all, as to assay: NCI-60 cell line screen, 48 h

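A five-concentration, 48-hour dose response in 96-well plates underlies each endpoint, interpolated linearly between surrounding concentrations. At the GI50, growth is halved. The concentration for full growth arrest is given as TGI.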

Consider `C[C@H]1[C@H](C)CC[C@]2(C(=O)NCCNCCN)CC[C@]3(C)C(=CC[C@@H]4[C@@]5(C)CCC(=O)C(C)(C)[C@@H]5CC[C@]43C)[C@H]12`, for which the GI50 is 1.85 µM in the test with KM12 colon; 1.64 µM with MALME-3M melanoma; 2.8 µM in the test with NCI-H23 lung; 2.9 µM in the test on OVCAR-5 ovarian; 1.98 µM in the test on SK-MEL-2 melanoma; 1.65 µM with SK-MEL-28 melanoma. For the same compound, the GI50 in the test with SNB-19 CNS is 1.67 µM; in the test on U251 CNS it was 1.66 µM; in the test with UO-31 renal, 1.53 µM. Besides, the TGI with KM12 colon amounted to 3.42 µM; with MALME-3M melanoma it was 3.06 µM; in the test with NCI-H23 lung, 8.3 µM; with OVCAR-5 ovarian, 11.3 µM; with SK-MEL-2 melanoma, 4.29 µM; in the test with SK-MEL-28 melanoma it was 3.02 µM. Besides, the TGI in the test on SNB-19 CNS is 3.11 µM; with U251 CNS, 3.17 µM; in the test on UO-31 renal it was 2.86 µM.
Turning to `CC(C)c1ccccc1NC(=O)/C(Cl)=C1/Sc2ccccc2NC1=O`, the TGI is 80.7 µM in the test on MALME-3M melanoma; 70.8 µM in the test on NCI-H23 lung; > 100 µM with OVCAR-5 ovarian; 37.8 µM in the test on SK-MEL-2 melanoma; > 100 µM in the test with SK-MEL-28 melanoma; > 100 µM in the test on SNB-19 CNS. For the same compound, the TGI in the test on U251 CNS and in the test on UO-31 renal was > 100 µM in each case.
Turning to `CCOC(=O)c1ccc(N[C@@H]2c3cc4c(cc3C(C3=CC(=O)C(=O)C(OC)=C3)[C@H]3C(=O)OCC32)OCO4)cc1` (stereo partly drawn), the TGI is > 33.2 µM with KM12 colon; 11.2 µM with MALME-3M melanoma; 4.21 µM in the test on NCI-H23 lung; 36.1 µM in the test with OVCAR-5 ovarian; 6.08 µM with SK-MEL-2 melanoma; 40.5 µM with SK-MEL-28 melanoma. In addition, the TGI in the test on SNB-19 CNS stood at 42 µM; with U251 CNS, 4.77 µM; with UO-31 renal, 9.43 µM.
For the compound `CC(=O)N[C@H](C(=O)N[C@@H](CCCNC(=N)N)C(=O)N[C@@H](CCCCN)C(=O)N[C@@H](CCCNC(=N)N)C(=O)N[C@]1(C)CCCCCC/C=C\CCC[C@@](C)(C(=O)N[C@@H](CCCNC(=N)N)C(=O)N[C@@H](CCC(=O)O)C(=O)N[C@@H](CC(C)C)C(=O)N[C@H](C(=O)N[C@@H](CCC(=O)O)C(N)=O)C(C)C)NC(=O)[C@H](CCC(N)=O)NC(=O)[C@H](CC(C)C)NC(=O)[C@H](CC(C)C)NC(=O)[C@H](CCCNC(=N)N)NC(=O)[C@H](CCCNC(=N)N)NC(=O)[C@H](CC(C)C)NC1=O)C(C)C`, the GI50 is 1.3 µM with KM12 colon; 1.19 µM in the test on MALME-3M melanoma; 2.77 µM in the test on NCI-H23 lung; 11.5 µM with OVCAR-5 ovarian; 7.59 µM in the test with SK-MEL-2 melanoma; 2.64 µM in the test with SK-MEL-28 melanoma. The results for the GI50 in the test on SNB-19 CNS, in the test with U251 CNS and with UO-31 renal were 10.3 µM, 3.79 µM and 11.1 µM, respectively. For the same compound, the TGI is 3.77 µM in the test on KM12 colon; 2.72 µM in the test with MALME-3M melanoma; 30.1 µM in the test on NCI-H23 lung; 41.2 µM with OVCAR-5 ovarian; > 50 µM with SK-MEL-2 melanoma; 21.7 µM in the test with SK-MEL-28 melanoma. For the same compound, the results for the TGI in the test with SNB-19 CNS, in the test on U251 CNS and in the test with UO-31 renal were > 50 µM, 36.6 µM and 47.1 µM, respectively.
Take `Cc1ccc2nc3c(Cl)c(C)c(=O)cc-3sc2c1`: the GI50 is 78 µM with KM12 colon; 73.8 µM with MALME-3M melanoma; 23.7 µM in the test with NCI-H23 lung; 73.7 µM in the test with OVCAR-5 ovarian; 51.1 µM in the test on SK-MEL-2 melanoma; > 100 µM in the test on SK-MEL-28 melanoma. Besides, the GI50 in the test with SNB-19 CNS is > 100 µM; in the test with U251 CNS it was 45.1 µM. In addition, the TGI with KM12 colon, in the test on MALME-3M melanoma, in the test with NCI-H23 lung, with OVCAR-5 ovarian, with SK-MEL-2 melanoma and in the test with SK-MEL-28 melanoma was > 100 µM in each case. The TGI with SNB-19 CNS, in the test with U251 CNS and in the test on UO-31 renal was > 100 µM each time.
`CCN(CC)CC(=O)N1CCc2c([nH]c3ccccc23)C1c1cccnc1` (stereo not drawn): the TGI in the test on KM12 colon, with NCI-H23 lung, with OVCAR-5 ovarian, in the test with SK-MEL-28 melanoma, in the test on SNB-19 CNS and with U251 CNS was > 100 µM throughout. The TGI in the test with UO-31 renal is > 100 µM.
Turning to `Cl[Si]1(Cl)Oc2ccccc2O[Si](Cl)(Cl)Oc2ccccc2O1`, the TGI in the test with KM12 colon is > 100 µM; in the test with MALME-3M melanoma, > 100 µM; in the test with NCI-H23 lung, 84.6 µM; in the test on OVCAR-5 ovarian, > 100 µM; with SK-MEL-2 melanoma, 73.8 µM; with SK-MEL-28 melanoma, > 100 µM. In addition, the TGI in the test with SNB-19 CNS and in the test on U251 CNS was > 100 µM throughout.
For `CCCCCCCCCCCCCC(=O)OCC1OC(=O)CC1O` (stereo not drawn), the TGI in the test on KM12 colon, with MALME-3M melanoma, in the test on NCI-H23 lung, in the test with OVCAR-5 ovarian, in the test on SK-MEL-2 melanoma and in the test on SNB-19 CNS was > 100 µM in each case. Further, the TGI is > 100 µM in the test with U251 CNS and 81.6 µM with UO-31 renal.

For the origin of these results see PubChem BioAssay (NCI).
